Data set [1] in a line: Solubility of edaravone in solubility enhancing agents. The data set is classed as physicochemical. The source says:
The table below, illustrates the best possible solubilizing agents that are utilized in the present invention.

For data set [2] the following is noted: cited from earlier work.

Consider one compound from US12491178B2, “Stable pharmaceutical compositions of edaravone” (Slayback Pharma LLC, priority 2023, dated 2025).

Turning to `CC1=NN(c2ccccc2)C(=O)C1` [edaravone, 3-methy-1-phenyl-2-pyrazolin-5-one], the Solubility in data set [1] (in Alcohol) is given as 52.27 mg/gm; in data set [1] (in CCMG 400 LQ (Mixture of caprylocaproyl polyoxylglycerides)) it was 14.36 mg/gm; in data set [1] (in Capryol 90 (Propylene Glycol Monocaprylate)) it was 15.8 mg/gm; in data set [1] (in Capryol 90 + Ethanol (50:50)) it was 65.0 mg/gm; in data set [1] (in Castor Oil) it was 7.9 mg/gm; in data set [1] (in Castor oil + Ethanol (50:50)), 72.2 mg/gm. The Solubility was determined as 2.1 mg/gm in data set [1] (in Cotton seed oil); 13.59 mg/gm in data set [1] (in Imwitor 988 (Ester of caprylic acid and glycerol)); 8.61 mg/gm in data set [1] (in Kollisolv MCT 70); 6.9 mg/gm in data set [1] (in Labrafil M 1944 (Oleoyl polyoxyl-6 glycerides)); 9.10 mg/gm in data set [1] (in Labrafil M 2125 (Linoleoyl Polyoxyl-6 glycerides)); 25.1 mg/gm in data set [1] (in Labrasol ALF (Caprylocaproyl Polyoxyl-8 glycerides), edaravone dissolved per gram of agent). Moreover, the Solubility in data set [1] (in Labrasol ALF + Ethanol (50:50)) was found to be 78.8 mg/gm; in data set [1] (in Lauroglycol 90 (Propylene glycol monolaurate)), 8.1 mg/gm; in data set [1] (in Miglyol 812 (Triester of caprylic and capric acid)), 11.26 mg/gm; in data set [1] (in PEG 300 (polyethylene glycol)), 26.4 mg/gm; in data set [1] (in PEG 300 + Ethanol (50:50)), 66.3 mg/gm; in data set [1] (in Peanut oil) it was 1.7 mg/gm. Also, the results for the Solubility in data set [1] (in Peppermint Oil), in data set [1] (in Peppermint Oil + Ethanol (50:50)) and in data set [1] (in Polysorbate 20) were 37.6 mg/gm, 72.8 mg/gm and 17.7 mg/gm, respectively. Besides, the “oral bioavailability (Fabs)” value in data set [2] is reported as 5.23%.
